{"source": "paper PMC9668969", "about": "(Nature Communications, 2022)", "test_in_all_cases": "Giant liposome excised patch-clamp recordings (2:1:1 POPC:POPE:POPG)", "assay_type_in_all_cases": "biochemical, Erwinia chrysanthemi", "key": {"[1]": {"target": "T1, ELIC5 (P254G/C300S/V261Y/G319F/I320F) (Dickeya chrysanthemi, UniProt P0C7B7, C299S/G318F/I319F/P253G/V260Y)", "T1 construct": "host or cells: OverExpress C43 (DE3) E. coli", "T1 sequence (P0C7B7 whole entry P253G/V260Y/C299S/G318F/I319F)": "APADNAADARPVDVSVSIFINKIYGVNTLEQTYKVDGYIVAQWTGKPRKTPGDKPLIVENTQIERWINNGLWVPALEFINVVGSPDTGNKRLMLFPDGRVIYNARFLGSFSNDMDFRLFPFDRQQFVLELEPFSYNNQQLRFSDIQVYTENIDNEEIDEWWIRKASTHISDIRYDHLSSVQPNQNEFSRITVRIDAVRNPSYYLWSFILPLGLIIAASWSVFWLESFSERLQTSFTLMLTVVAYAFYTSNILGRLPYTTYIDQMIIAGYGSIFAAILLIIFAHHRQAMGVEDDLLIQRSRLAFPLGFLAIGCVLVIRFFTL", "protocol": "(§1) Giant liposome formation and excised patch-clamp recordings of ELIC were performed as previously described[12],[13]. 0.5 mg of WT ELIC, ELIC3 or ELIC5 were reconstituted in 5 mg of 2:1:1 POPC:POPE:POPG liposomes, using DDM destabilization and biobeads. 10 mM MOPS pH 7 and 150 mM NaCl (MOPS buffer) was used throughout. Proteoliposomes were pelleted and resuspended in ~80 µl, and frozen in 10 µl aliquots. Giant liposomes were formed by dehydrating 10 µl of proteoliposomes on a glass coverslip in a vacuum desiccator for ~20 min followed by rehydration with 100 µl of MOPS buffer overnight at 4 °C and 2 hr at RT the following day. The giant liposomes were resuspended by pipetting and applied to a recording chamber. The liposomes were allowed to settle for 15 min, after which free liposomes and debris were removed by exchanging the bath solution. Bath and pipette solutions contained MOPS buffer and 0.5 mM BaCl2 (Sigma). […] Rapid application or washout of agonist were performed using a three-barreled flowpipe mounted to and controlled by a SF-77B fast perfusion system (Warner Instrument Corporation). […] Deactivation time courses were fit with a single exponential while the time course of desensitization was fit with a double exponential. Weighted time constants were calculated using Eq. 1:1 Weighted Tau=A1×τ1+(A2×τ2)/A1+A2 where A1 and A2 are the amplitudes of the first and second exponential components. The data were collected and analyzed using pClamp10.4 software."}, "WT ELIC": {"test_system": "WT ELIC", "protocol": "as §1"}, "[2]": {"target": "T2, ELIC3 (V261Y/G319F/I320F) (Dickeya chrysanthemi, UniProt P0C7B7, G318F/I319F/V260Y)", "T2 construct": "host or cells: OverExpress C43 (DE3) E. coli", "T2 sequence (P0C7B7 whole entry V260Y/G318F/I319F)": "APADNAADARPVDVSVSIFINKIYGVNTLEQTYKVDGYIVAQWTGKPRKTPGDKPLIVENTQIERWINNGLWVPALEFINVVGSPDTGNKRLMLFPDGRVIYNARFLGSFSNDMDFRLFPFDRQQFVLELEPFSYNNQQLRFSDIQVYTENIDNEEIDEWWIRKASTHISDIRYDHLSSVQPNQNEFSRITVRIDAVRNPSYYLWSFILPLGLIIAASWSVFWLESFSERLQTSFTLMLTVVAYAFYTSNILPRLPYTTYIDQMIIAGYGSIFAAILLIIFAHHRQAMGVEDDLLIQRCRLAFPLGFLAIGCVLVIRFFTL", "protocol": "as §1"}, "[3]": {"conditions": "2:1:1 giant liposomes, 0.5 mM BaCl2, Hill n set to 2, read-out: EC50 of peak current dose response"}}, "note": "Values joined by “and” are separate entries in the source; they are usually repeats but may differ in a detail not shown here. Equal values may be shown once.", "data": [{"smiles": "NCCS", "note": "[cysteamine]", "values": [{"measurement": "Relative current at 60s", "setting": "[1]; 10 mM Cys", "value": "No evidence of desensitization"}, {"measurement": "Time constant of deactivation, Deactivation Tau", "setting": "[1]; 10 mM Cys", "value": 195.719, "unit": "s"}, {"measurement": "Time constant of desensitizaton", "setting": "[1]; 10 mM Cys", "value": "No evidence of desensitization"}, {"measurement": "deactivation rate, fold slower than WT", "setting": "[1]; after removal of 10 mM cysteamine", "value": "~ 1000 ×"}, {"measurement": "desensitization", "setting": "[1]; in the presence of 10 mM cysteamine", "value": "no evidence of desensitization"}, {"measurement": "Peak response (normalized)", "setting": "WT ELIC; 0.3 mM cysteamine", "value": 0.003114}, {"measurement": "Peak response (normalized)", "setting": "WT ELIC; 1 mM cysteamine", "value": 0.01807}, {"measurement": "Peak response (normalized)", "setting": "WT ELIC; 3 mM cysteamine", "value": 0.2085}, {"measurement": "Relative current at 60s, Average", "setting": "WT ELIC; 10 mM Cys", "value": 0.05101}, {"measurement": "Time constant of deactivation, Deactivation Tau", "setting": "WT ELIC; 10 mM Cys", "value": 0.1636, "unit": "s"}, {"measurement": "Time constant of desensitizaton, Weighted Tau", "setting": "WT ELIC; 10 mM Cys", "value": 4.764, "unit": "s"}, {"measurement": "Peak response (normalized)", "setting": "WT ELIC; 10 mM cysteamine", "value": 0.7416}, {"measurement": "Relative current at 60s, Average", "setting": "WT ELIC; 30 mM Cys", "value": 0.03561}, {"measurement": "Time constant of deactivation, Deactivation Tau", "setting": "WT ELIC; 30 mM Cys", "value": 0.4008, "unit": "s"}, {"measurement": "Time constant of desensitizaton, Weighted Tau", "setting": "WT ELIC; 30 mM Cys", "value": 2.506, "unit": "s"}, {"measurement": "Peak response (normalized)", "setting": "WT ELIC; 30 mM cysteamine", "value": 1}, {"measurement": "EC50", "setting": "WT ELIC; [3]", "value": "5.2 mM and 4 to 5 mM"}, {"measurement": "Peak response (normalized)", "setting": "[2]; 0.3 mM cysteamine", "value": 0.02035}, {"measurement": "Peak response (normalized)", "setting": "[2]; 1 mM cysteamine", "value": 0.4462}, {"measurement": "Peak response (normalized)", "setting": "[2]; 3 mM cysteamine", "value": 0.7955}, {"measurement": "Relative current at 60s, Average", "setting": "[2]; 10 mM Cys", "value": 0.1185}, {"measurement": "Time constant of deactivation, Deactivation Tau", "setting": "[2]; 10 mM Cys", "value": 1.081, "unit": "s"}, {"measurement": "Time constant of desensitizaton, Weighted Tau", "setting": "[2]; 10 mM Cys", "value": 12.8369, "unit": "s"}, {"measurement": "Peak response (normalized)", "setting": "[2]; 10 mM cysteamine", "value": 1.022}, {"measurement": "Relative current at 60s, Average", "setting": "[2]; 30 mM Cys", "value": 0.08245}, {"measurement": "Time constant of deactivation, Deactivation Tau", "setting": "[2]; 30 mM Cys", "value": 1.658, "unit": "s"}, {"measurement": "Time constant of desensitizaton, Weighted Tau", "setting": "[2]; 30 mM Cys", "value": 8.1999, "unit": "s"}, {"measurement": "Peak response (normalized)", "setting": "[2]; 30 mM cysteamine", "value": 1}, {"measurement": "EC50", "setting": "[2]; [3]", "value": "1.2 ± 0.2", "unit": "mM"}]}]}
